Assay results taken from article PMC5218480 (PLoS ONE, 2017).

Tested on: MV-4-11 cells
Test: Gene expression microarray analysis (Affymetrix PrimeView) and GSEA
Type: cell-based, human
Design: RFU PODN (11730768_x_at) / Fold change /veh PODN (11730768_x_at) / RFU LINC00158 (11744669_a_at) / Fold change /veh LINC00158 (11744669_a_at) / RFU DUSP10 (11751237_a_at) / Fold change /veh DUSP10 (11751237_a_at) / RFU ID3 (11757404_x_at) / Fold change /veh ID3 (11757404_x_at) / RFU PLEKHG5 (11737974_s_at) / Fold change /veh PLEKHG5 (11737974_s_at) / RFU LRRC4B (11730491_at) / Fold change /veh LRRC4B (11730491_at) / RFU GIMAP4 (11747438_a_at) / Fold change /veh GIMAP4 (11747438_a_at) / RFU KRT8 (11758183_x_at) / Fold change /veh KRT8 (11758183_x_at) / RFU CNN1 (11734310_a_at) / Fold change /veh CNN1 (11734310_a_at) / RFU VPS37D (11726825_at) / Fold change /veh VPS37D (11726825_at) / RFU C10orf10 (11716522_x_at) / Fold change /veh C10orf10 (11716522_x_at) / RFU KIR2DL2 /// KIR2DL4 /// KIR2DL5A /// KIR2DL5B /// KIR2DS1 /// KIR2DS2 /// KIR2DS3 /// KIR2DS4 /// KIR3DL3 /// KIR3DL3 /// KIR3DS1 (11738374_at) / Fold change /veh KIR2DL2 /// KIR2DL4 /// KIR2DL5A /// KIR2DL5B /// KIR2DS1 /// KIR2DS2 /// KIR2DS3 /// KIR2DS4 /// KIR3DL3 /// KIR3DL3 /// KIR3DS1 (11738374_at) / RFU C1QL1 (11718748_at) / Fold change /veh C1QL1 (11718748_at) / RFU TMPRSS4 (11747572_a_at) / Fold change /veh TMPRSS4 (11747572_a_at) / RFU HAMP (11756126_x_at) / Fold change /veh HAMP (11756126_x_at) / RFU RNFT2 (11725882_a_at) / Fold change /veh RNFT2 (11725882_a_at) / RFU NR4A2 (11747474_a_at) / Fold change /veh NR4A2 (11747474_a_at) / RFU ABCC12 (11746883_a_at) / Fold change /veh ABCC12 (11746883_a_at) / RFU TMEM136 (11760407_x_at) / Fold change /veh TMEM136 (11760407_x_at) / RFU CLDN22 /// WWC2 (11732394_at) / Fold change /veh CLDN22 /// WWC2 (11732394_at) / RFU HLA-DPB1 (11760878_x_at) / Fold change /veh HLA-DPB1 (11760878_x_at) / RFU SPINT1 (11716480_a_at) / Fold change /veh SPINT1 (11716480_a_at) / RFU GAP43 (11754022_s_at) / Fold change /veh GAP43 (11754022_s_at) / RFU A4GNT (11735810_at) / Fold change /veh A4GNT (11735810_at) / RFU PRB3 (11715151_x_at) / Fold change /veh PRB3 (11715151_x_at) / RFU TUBB4B (11761932_at) / Fold change /veh TUBB4B (11761932_at) / RFU CAPN14 (11732068_a_at) / Fold change /veh CAPN14 (11732068_a_at) / RFU TMCC2 (11721928_a_at) / Fold change /veh TMCC2 (11721928_a_at) / RFU IRGQ (11745062_a_at) / Fold change /veh IRGQ (11745062_a_at) / RFU FAM174B (11720279_a_at) / Fold change /veh FAM174B (11720279_a_at) / RFU TMPRSS4 (11748680_a_at) / Fold change /veh TMPRSS4 (11748680_a_at) / RFU FAM212B (11763350_a_at) / Fold change /veh FAM212B (11763350_a_at) / RFU PLEKHG5 (11743358_a_at) / Fold change /veh PLEKHG5 (11743358_a_at) / RFU ZSCAN30 (11745921_a_at) / Fold change /veh ZSCAN30 (11745921_a_at) / RFU CMKLR1 (11741424_a_at) / Fold change /veh CMKLR1 (11741424_a_at) / RFU LOC101060620 /// MAPK8IP1 (11723275_at) / Fold change /veh LOC101060620 /// MAPK8IP1 (11723275_at) / RFU SPTSSB (11747773_x_at) / Fold change /veh SPTSSB (11747773_x_at) / RFU PRSS12 (11739890_at) / Fold change /veh PRSS12 (11739890_at) / RFU BIN1 (11741810_x_at) / Fold change /veh BIN1 (11741810_x_at) / RFU WNT11 (11732464_a_at) / Fold change /veh WNT11 (11732464_a_at) / RFU C10orf10 (11716521_a_at) / Fold change /veh C10orf10 (11716521_a_at) / RFU C5orf56 (11738089_at) / Fold change /veh C5orf56 (11738089_at) / RFU CYB561 (11721691_x_at) / Fold change /veh CYB561 (11721691_x_at) / RFU ANKRD19P (11752326_a_at) / Fold change /veh ANKRD19P (11752326_a_at) / RFU OR2T12 /// OR2T33 /// OR2T8 (11738714_s_at) / Fold change /veh OR2T12 /// OR2T33 /// OR2T8 (11738714_s_at) / RFU VCAN (11748164_a_at) / Fold change /veh VCAN (11748164_a_at) / RFU JSRP1 (11732532_at) / Fold change /veh JSRP1 (11732532_at) / RFU KRTAP10-11 (11738290_x_at) / Fold change /veh KRTAP10-11 (11738290_x_at) / RFU MYO3A (11730013_a_at) / Fold change /veh MYO3A (11730013_a_at) / RFU EBF3 (11725865_a_at) / Fold change /veh EBF3 (11725865_a_at) / RFU CAMK2N1 (11719241_x_at) / Fold change /veh CAMK2N1 (11719241_x_at) / RFU C5orf56 (11738088_a_at) / Fold change /veh C5orf56 (11738088_a_at) / RFU OLFML3 (11715873_a_at) / Fold change /veh OLFML3 (11715873_a_at) / RFU LOC100653217 /// NTM (11731650_a_at) / Fold change /veh LOC100653217 /// NTM (11731650_a_at) / RFU MAPK11 (11762145_a_at) / Fold change /veh MAPK11 (11762145_a_at) / RFU FIZ1 (11724087_x_at) / Fold change /veh FIZ1 (11724087_x_at) / RFU OASL (11726364_x_at) / Fold change /veh OASL (11726364_x_at) / RFU SOX15 (11748057_x_at) / Fold change /veh SOX15 (11748057_x_at) / RFU CD79A (11719716_a_at) / Fold change /veh CD79A (11719716_a_at) / RFU HIST1H1D (11736915_at) / Fold change /veh HIST1H1D (11736915_at) / RFU CASKIN2 (11723855_a_at) / Fold change /veh CASKIN2 (11723855_a_at) / RFU LOC730098 (11760151_x_at) / Fold change /veh LOC730098 (11760151_x_at) / RFU OR4N2 (11742367_at) / Fold change /veh OR4N2 (11742367_at) / RFU PRRT2 (11749266_a_at) / Fold change /veh PRRT2 (11749266_a_at) / RFU SNX32 (11753110_a_at) / Fold change /veh SNX32 (11753110_a_at) / RFU CDHR5 (11726645_a_at) / Fold change /veh CDHR5 (11726645_a_at) / RFU RCAN1 (11760418_a_at) / Fold change /veh RCAN1 (11760418_a_at) / RFU FAM167A (11723789_a_at) / Fold change /veh FAM167A (11723789_a_at) / RFU FAM26E (11764081_at) / Fold change /veh FAM26E (11764081_at) / RFU ISYNA1 (11749810_s_at) / Fold change /veh ISYNA1 (11749810_s_at) / RFU ACY1 (11761880_at) / Fold change /veh ACY1 (11761880_at) / RFU 11764098_at / Fold change /veh 11764098_at / RFU SAMD14 (11745864_x_at) / Fold change /veh SAMD14 (11745864_x_at) / RFU NPB (11741838_a_at) / Fold change /veh NPB (11741838_a_at) / RFU TMPRSS6 (11731388_a_at) / Fold change /veh TMPRSS6 (11731388_a_at) / RFU KRTAP10-2 (11738614_at) / Fold change /veh KRTAP10-2 (11738614_at) / RFU ARHGAP8 /// PRR5-ARHGAP8 (11727945_x_at) / Fold change /veh ARHGAP8 /// PRR5-ARHGAP8 (11727945_x_at) / RFU KRTAP5-7 /// NADSYN1 (11734609_at) / Fold change /veh KRTAP5-7 /// NADSYN1 (11734609_at) / RFU RASL12 (11751679_a_at) / Fold change /veh RASL12 (11751679_a_at) / RFU CDKN2B (11736163_a_at) / Fold change /veh CDKN2B (11736163_a_at) / RFU PRF1 (11729649_at) / Fold change /veh PRF1 (11729649_at) / RFU, ZNF638 /// ZNF638-IT1 / Fold change vs veh, ZNF638 /// ZNF638-IT1 / RFU, PANK3 / Fold change vs veh, PANK3 / RFU, SH3YL1 / Fold change vs veh, SH3YL1 / RFU, ZEB2 / Fold change vs veh, ZEB2 / RFU, NRIP1 / Fold change vs veh, NRIP1 / RFU, PTTG1IP / Fold change vs veh, PTTG1IP / RFU, CAPN2 / Fold change vs veh, CAPN2 / RFU, MED14 / Fold change vs veh, MED14 / RFU, SNORA58 / Fold change vs veh, SNORA58 / RFU, C1orf63 / Fold change vs veh, C1orf63 / RFU, LRRFIP1 / Fold change vs veh, LRRFIP1 / RFU, NDUFAF7 / Fold change vs veh, NDUFAF7 / RFU, SLC12A2 / Fold change vs veh, SLC12A2 / RFU, IBTK / Fold change vs veh, IBTK / RFU, ESF1 / Fold change vs veh, ESF1 / Fold change vs veh, TMEM50B / RFU, TAOK1 / Fold change vs veh, TAOK1 / RFU, ACBD3 / Fold change vs veh, ACBD3 / RFU, TMA16 / Fold change vs veh, TMA16 / RFU, RWDD3 / Fold change vs veh, RWDD3 / RFU, BCAT1 / Fold change vs veh, BCAT1 / RFU, EDEM3 / Fold change vs veh, EDEM3 / RFU, TMEM33 / Fold change vs veh, TMEM33 / RFU, WDR75 / Fold change vs veh, WDR75 / RFU, AHCTF1 / Fold change vs veh, AHCTF1 / RFU, TFRC / Fold change vs veh, TFRC / RFU, ZDHHC17 / Fold change vs veh, ZDHHC17 / RFU, NOM1 / Fold change vs veh, NOM1 / RFU, ARL8B / Fold change vs veh, ARL8B / RFU, ZBTB11 / Fold change vs veh, ZBTB11 / RFU, TAMM41 / Fold change vs veh, TAMM41 / RFU, KIAA1704 /// LOC100996395 / Fold change vs veh, KIAA1704 /// LOC100996395 / RFU, ING1 / Fold change vs veh, ING1 / RFU, TRMT61B / Fold change vs veh, TRMT61B / RFU, FUBP3 / Fold change vs veh, FUBP3 / RFU, TP53 / Fold change vs veh, TP53 / RFU, TNKS2 / Fold change vs veh, TNKS2 / RFU, ZFP14 / Fold change vs veh, ZFP14 / RFU, ACTR2 / Fold change vs veh, ACTR2 / RFU, PPP3R1 / Fold change vs veh, PPP3R1 / RFU, PIK3R1 / Fold change vs veh, PIK3R1 / RFU, HNRNPA1 / Fold change vs veh, HNRNPA1 / RFU, RNF170 / Fold change vs veh, RNF170 / RFU, ZNF28 / Fold change vs veh, ZNF28 / RFU, RNGTT / Fold change vs veh, RNGTT / RFU, OGT / Fold change vs veh, OGT / RFU, BRD1 / Fold change vs veh, BRD1 / RFU, MARS / Fold change vs veh, MARS / RFU, ZNF655 / Fold change vs veh, ZNF655 / RFU, FAHD1 / Fold change vs veh, FAHD1 / RFU, BDP1 / Fold change vs veh, BDP1 / RFU, LRRCC1 / Fold change vs veh, LRRCC1 / RFU, ARID1A / Fold change vs veh, ARID1A / RFU, ZNF146 / Fold change vs veh, ZNF146 / RFU, ZNF330 / Fold change vs veh, ZNF330 / RFU, GPN3 / Fold change vs veh, GPN3 / RFU, C9orf123 / Fold change vs veh, C9orf123 / RFU, N4BP2L2 / Fold change vs veh, N4BP2L2 / RFU, ARFIP1 / Fold change vs veh, ARFIP1 / RFU, FAM179B / Fold change vs veh, FAM179B / RFU, BCL10 / Fold change vs veh, BCL10 / RFU, UHRF1BP1L / Fold change vs veh, UHRF1BP1L / RFU, BET1 / Fold change vs veh, BET1 / RFU, CNOT2 / Fold change vs veh, CNOT2 / RFU, ZNF268 / Fold change vs veh, ZNF268 / Fold change vs veh, ZNF507 / RFU, DGCR2 / Fold change vs veh, DGCR2 / RFU, WDSUB1 / Fold change vs veh, WDSUB1 / Fold change vs veh, HSP90B1 /// MIR3652 / RFU, ADSS / Fold change vs veh, ADSS / RFU, GK / Fold change vs veh, GK / RFU, ZNF148 / Fold change vs veh, ZNF148 / RFU, TAF9 / Fold change vs veh, TAF9 / RFU, SLC1A5 / Fold change vs veh, SLC1A5 / RFU, SLMO2 / Fold change vs veh, SLMO2 / RFU, ABCC4 / Fold change vs veh, ABCC4 / RFU, LOC101060439 /// RAP1B / Fold change vs veh, LOC101060439 /// RAP1B / RFU, RFX7 / Fold change vs veh, RFX7 / RFU, GTPBP10 / Fold change vs veh, GTPBP10 / RFU, CNEP1R1 / Fold change vs veh, CNEP1R1 / RFU, BIVM-ERCC5 /// ERCC5 / Fold change vs veh, BIVM-ERCC5 /// ERCC5 / RFU, ILF3 / Fold change vs veh, ILF3 / RFU 11762660_at / Fold change /veh 11762660_at / RFU VCAN (11757783_s_at) / Fold change /veh VCAN (11757783_s_at) / RFU DDX43 (11728927_at) / Fold change /veh DDX43 (11728927_at) / RFU KRT8 (11758188_x_at) / Fold change /veh KRT8 (11758188_x_at) / RFU NKD1 (11759106_at) / Fold change /veh NKD1 (11759106_at) / RFU SRD5A1 (11742802_a_at) / Fold change /veh SRD5A1 (11742802_a_at) / RFU TPSAB1 /// TPSB2 (11721975_s_at) / Fold change /veh TPSAB1 /// TPSB2 (11721975_s_at) / RFU GSTM3 (11746129_a_at) / Fold change /veh GSTM3 (11746129_a_at) / RFU IL23R (11737362_x_at) / Fold change /veh IL23R (11737362_x_at) / RFU TMEM51 (11727254_a_at) / Fold change /veh TMEM51 (11727254_a_at) / RFU PIWIL2 (11732686_x_at) / Fold change /veh PIWIL2 (11732686_x_at) / RFU ORM1 (11744905_x_at) / Fold change /veh ORM1 (11744905_x_at) / RFU CCDC152 (11743942_at) / Fold change /veh CCDC152 (11743942_at) / RFU ECM1 (11717891_a_at) / Fold change /veh ECM1 (11717891_a_at) / RFU IL23R (11748794_a_at) / Fold change /veh IL23R (11748794_a_at) / RFU TNFAIP8L3 (11732012_x_at) / Fold change /veh TNFAIP8L3 (11732012_x_at) / RFU MBOAT4 (11741988_at) / Fold change /veh MBOAT4 (11741988_at) / RFU 11764193_at / Fold change /veh 11764193_at / RFU TMEM53 (11763286_at) / Fold change /veh TMEM53 (11763286_at) / RFU MAGEB2 (11727129_at) / Fold change /veh MAGEB2 (11727129_at) / RFU TMEM200A (11744735_a_at) / Fold change /veh TMEM200A (11744735_a_at) / RFU CCDC152 (11751479_a_at) / Fold change /veh CCDC152 (11751479_a_at) / RFU FAM211A (11726209_a_at) / Fold change /veh FAM211A (11726209_a_at) / RFU RGS16 (11746705_a_at) / Fold change /veh RGS16 (11746705_a_at) / RFU VCAN (11755009_s_at) / Fold change /veh VCAN (11755009_s_at) / RFU RHOB (11743442_s_at) / Fold change /veh RHOB (11743442_s_at) / RFU RGS16 (11720943_a_at) / Fold change /veh RGS16 (11720943_a_at) / RFU RGS16 (11720944_at) / Fold change /veh RGS16 (11720944_at) / RFU, VPS4B / Fold change vs veh, VPS4B / RFU, CREB1 / Fold change vs veh, CREB1 / RFU, DNAJC13 / Fold change vs veh, DNAJC13 / RFU, GNAQ / Fold change vs veh, GNAQ / RFU, CDK5R1 / Fold change vs veh, CDK5R1 / RFU, ZRANB3 / Fold change vs veh, ZRANB3 / RFU, CUL4A / Fold change vs veh, CUL4A / RFU, CCNY / Fold change vs veh, CCNY / RFU, UFL1 / Fold change vs veh, UFL1 / RFU, COG3 / Fold change vs veh, COG3 / RFU, DIAPH2 / Fold change vs veh, DIAPH2 / RFU, SKA2 / Fold change vs veh, SKA2 / RFU, AFF3 / Fold change vs veh, AFF3 / RFU, LMF1 / Fold change vs veh, LMF1 / RFU, IPO11 / Fold change vs veh, IPO11 / RFU, DFFB / Fold change vs veh, DFFB / RFU, FOXP1 / Fold change vs veh, FOXP1 / RFU, CARD8 / Fold change vs veh, CARD8 / RFU, STRN3 / Fold change vs veh, STRN3 / RFU, ADK / Fold change vs veh, ADK / RFU, RASSF2 / Fold change vs veh, RASSF2 / RFU, WIPF1 / Fold change vs veh, WIPF1 / RFU, LARP1B / Fold change vs veh, LARP1B / RFU, RASA1 / Fold change vs veh, RASA1 / RFU, RB1 / Fold change vs veh, RB1 / RFU, PPFIA1 / Fold change vs veh, PPFIA1 / RFU, MAT2A / Fold change vs veh, MAT2A / RFU, CCT5 / Fold change vs veh, CCT5 / RFU, WDR92 / Fold change vs veh, WDR92 / RFU, CUX1 / Fold change vs veh, CUX1 / RFU, TTC7A / Fold change vs veh, TTC7A / RFU, TMEM135 / Fold change vs veh, TMEM135 / RFU, DEPTOR / Fold change vs veh, DEPTOR / RFU, CPM / Fold change vs veh, CPM / RFU, DNAJB6 / Fold change vs veh, DNAJB6 / RFU, CACNA2D3 / Fold change vs veh, CACNA2D3 / RFU, DTX4 / Fold change vs veh, DTX4 / RFU, TFCP2 / Fold change vs veh, TFCP2 / RFU, GMCL1 /// GMCL1P1 / Fold change vs veh, GMCL1 /// GMCL1P1 / RFU, AEBP2 / Fold change vs veh, AEBP2 / RFU, SNHG1 /// SNORD22 /// SNORD25 /// SNORD26 /// SNORD27 /// SNORD28 /// SNORD29 /// SNORD31 / Fold change vs veh, SNHG1 /// SNORD22 /// SNORD25 /// SNORD26 /// SNORD27 /// SNORD28 /// SNORD29 /// SNORD31 / Fold change (Aza/veh), C12orf56 (ProbeSet 11735607_a_at) / Fold change (ACY-1035/veh), C12orf56 (ProbeSet 11735607_a_at) / Fold change (Aza/veh), FGFR1OP (ProbeSet 11751329_s_at) / Fold change (ACY-1035/veh), FGFR1OP (ProbeSet 11751329_s_at) / Fold change (Aza/veh), VPS36 (ProbeSet 11739960_a_at) / Fold change (ACY-1035/veh), VPS36 (ProbeSet 11739960_a_at) / RFU SYPL1 (11715823_x_at) / Fold change /veh SYPL1 (11715823_x_at) / RFU IGFBP7 (11715501_s_at) / Fold change /veh IGFBP7 (11715501_s_at) / RFU REEP3 (11722064_at) / Fold change /veh REEP3 (11722064_at) / RFU IGLL1 (11728026_x_at) / Fold change /veh IGLL1 (11728026_x_at): dose or concentration left out as unconfirmed
Conditions: MV-4-11 cells, 48 hours

In the case of `Nc1ncn([C@@H]2O[C@H](CO)[C@@H](O)[C@H]2O)c(=O)n1` [azacitidine], the “RFU KRTAP10-11 (11738290_x_at)” value is reported as 43.89 RFU.
